Measured values taken from patent US11883383B2, “Pharmaceutically acceptable salts of [3-(4- {2-butyl-1-[4-(4-chloro-phenoxy)-phenyl]-1H-imidazol-4-yl} -phenoxy)-propyl]-diethyl-amine” (vTv Therapeutics LLC, priority 2018, dated 2024).

Assay: Storage of the solid salt at ambient conditions (physical stability / hygroscopicity)
Assay type: physicochemical
Source text: One mesylate crystal form was obtained via screening. Mesylate Type A was generated via reactive crystallization (molar ratio of 1:1) in ethyl acetate/hexane (1:2, v/v) at RT.

CCCCc1nc(-c2ccc(OCCCN(CC)CC)cc2)cn1-c1ccc(Oc2ccc(Cl)cc2)cc1.CS(=O)(=O)O [Mesylate Type A]
Storage at ambient conditions (ambient conditions): +
Hygroscopicity / stability under ambient conditions, as suggested by the gel conversion (ambient conditions, inferred from conversion to gel): highly hygroscopic and unstable
Physical stability of the sample after storage at ambient conditions (solid, storage at ambient conditions): converted to gel
